Results from PMC9099122 (Clinical and Translational Science, 2022).
Several values for one entry are separate records, joined by “and”; a condition that tells them apart may be missing. Equal entries are not always repeated. Where two headings read alike, the source gives them in different places. Marks after values point to notes of the source that are not given here.

Assays:
[1] = format: in vivo, human; details: for M:P AUCinf ratio, relative bioavailability point estimate / M:P AUCt ratio, relative bioavailability point estimate: Day 11 vs. day 1; for Cmax, geometric mean (mean, %CV): N = 20; for change in terminal elimination half-life / change in Tmax: day 11 compared to day 1, all subjects
[2] = system: P‐gp; details: following elagolix 200 mg b.i.d. regimen; cited from earlier work
[3] = system: P‐gp; details: in vitro; cited from earlier work
[4] = Elagolix plasma concentrations on day 11 of this study; format: in vivo; details: female, human, oral, 300 mg
[5] = system: CYP2C19; assay: Clinical classification of elagolix as CYP2C19 inhibitor from omeprazole DDI; format: in vivo, human; details: elagolix 300 mg b.i.d., FDA criteria for clinical CYP enzyme inhibitors
[6] = system: CYP2C19; details: in vitro; cited from earlier work
[7] = system: CYP3A4; details: cited from earlier work
[8] = system: CYP3A; details: in vitro; cited from earlier work
[9] = no reference given; cited from earlier work
[10] = cited from earlier work
[11] = rabbits, coadministration with verapamil; cited from earlier work
[12] = low aqueous solubility and high permeability; cited from earlier work
[13] = Day 1, omeprazole 40 mg (reference)
[14] = Day 11, elagolix 300 mg b.i.d. + omeprazole 40 mg (test)
[15] = Study day 1, omeprazole 40 mg alone
[16] = Study day 11, omeprazole 40 mg + elagolix 300 mg b.i.d.
[17] = day 11 (elagolix 300 mg b.i.d.) vs day 1, all subjects

In the case of `COc1ccc2nc([S+]([O-])Cc3ncc(CO)c(OC)c3C)[nH]c2c1` (stereo not shown) [5‐hydroxyomeprazole], the “M:P AUCinf ratio, central value” [1, 13] is reported as 0.458, the “M:P AUCt ratio, central value” [1, 13] is reported as 0.471 and the “M:P AUCinf ratio, central value” [1, 14] is reported as 0.198. The “M:P AUCt ratio, central value” [1, 14] was 0.194, the “M:P AUCinf ratio, relative bioavailability point estimate” value [1] was 0.432 and the “M:P AUCt ratio, relative bioavailability point estimate” value [1] was 0.412. For the same compound, the “AUCinf, geometric mean (mean, %CV)” value [1, 15] was 883 (932, 33) ng•h/ml, the “AUCt, geometric mean (mean, %CV)” value [1, 15] was 857 (911, 35) ng•h/ml and the “RAUCinf, metabolite-to-omeprazole AUCinf ratio, median (minimum–maximum)” value [1, 15] was 0.61 (0.048–2.3) ^c. For the same compound, the “RAUCt, metabolite-to-omeprazole AUCt ratio, median (minimum–maximum)” value [1, 15] was 0.65 (0.044–2.1), the “Tmax, median (minimum–maximum)” value [1, 15] was 2.0 (2.0–10) h and the “t1/2, harmonic mean (pseudo-standard deviation)” value [1, 15] was 1.88 (0.794) h. The “Cmax, geometric mean (mean, %CV)” value [1, 15] was 195 (238, 61) ng/ml, the “AUCinf, geometric mean (mean, %CV)” value [1, 16] was 664 (679, 21) ng•h/ml and the “AUCt, geometric mean (mean, %CV)” value [1, 16] was 643 (659, 22) ng•h/ml. The “RAUCinf, metabolite-to-omeprazole AUCinf ratio, median (minimum–maximum)” value [1, 16] was 0.20 (0.071–0.90), the “RAUCt, metabolite-to-omeprazole AUCt ratio, median (minimum–maximum)” value [1, 16] was 0.20 (0.071–0.84) and the “Tmax, median (minimum–maximum)” value [1, 16] was 3.0 (1.0–8.0) h. For the same compound, the “t1/2, harmonic mean (pseudo-standard deviation)” value [1, 16] was 1.97 (0.901) h, the “Cmax, geometric mean (mean, %CV)” value [1, 16] was 134 (142, 34) ng/ml and the “change in terminal elimination half-life” value [1] was “unchanged”. For the same compound, the “decrease in AUCinf” value ([1]; day 11 vs day 1, EM subjects) was 23%, the “decrease in AUCinf” value ([1]; day 11 vs day 1, IM subjects) was 30% and the “decrease in AUCinf (exposure)” value ([1]; day 11 vs day 1, PM subjects) was 20%. The “decrease in AUCinf (exposure)” value ([1]; day 11 vs day 1, all subjects) was 25%, the “decrease in Cmax” value ([1]; day 11 vs day 1, all subjects) was “approximately 30%” and the “decrease in metabolite-to-parent (M:P) AUC ratio” value ([1]; day 11 vs day 1, all subjects) was ~ 60%. For the same compound, the “increase in Tmax” value ([1]; day 11 vs day 1, all subjects) was 1 h.

For `C[C@H]1O[C@@H](O[C@H]2[C@@H](O)C[C@H](O[C@H]3[C@@H](O)C[C@H](O[C@H]4CC[C@@]5(C)[C@H](CC[C@@H]6[C@@H]5C[C@@H](O)[C@]5(C)[C@@H](C7=CC(=O)OC7)CC[C@]65O)C4)O[C@@H]3C)O[C@@H]2C)C[C@H](O)[C@@H]1O` [digoxin], the “increase in AUC” value [2] is given as 26% and the “increase in Cmax” value [2] is given as 71%.

In the case of `COc1cccc(-c2c(C)n(Cc3c(F)cccc3C(F)(F)F)c(=O)n(C[C@H](NCCCC(=O)O)c3ccccc3)c2=O)c1F` [elagolix], the IC50 [3] is given as 54 µM, the Cmax [4] is given as 1.41 µg/mL and the “clinical CYP2C19 inhibitor classification” value [5] is given as “weak inhibitor”. The Ki [6] was 34 µM, the kinact [6] was 0.029 min⁻¹ and the CYP3A inducer classification ([7]; from midazolam DDI) was “weak to moderate inducer”. For the same compound, the maximum induction [8] was 20 fold.

In the case of `Cc1ncc2n1-c1ccc(Cl)cc1C(c1ccccc1F)=NC2` [midazolam], the “reduction in AUC” value ([7]; with elagolix 150 mg q.d.) is given as 35% and the “reduction in AUC” value ([7]; with elagolix 300 mg b.i.d.) is given as 54%.

In the case of `COc1ccc2nc(S(=O)(=O)Cc3ncc(C)c(OC)c3C)[nH]c2c1` [omeprazole sulfone], the “M:P AUCinf ratio, central value” [1, 13] is reported as 0.825, the “M:P AUCt ratio, central value” [1, 13] is reported as 0.679 and the “M:P AUCinf ratio, central value” [1, 14] is reported as 1.028. The “M:P AUCt ratio, central value” [1, 14] was 1.017, the “M:P AUCinf ratio, relative bioavailability point estimate” value [1] was 1.246 and the “M:P AUCt ratio, relative bioavailability point estimate” value [1] was 1.497. For the same compound, the “change in Cmax after elagolix dosing” value ([1]; PM subjects) was “unchanged”, the “RAUCinf, metabolite-to-omeprazole AUCinf ratio, median (minimum–maximum)” value [1, 15] was 0.85 (0.52–1.1) ^e and the “RAUCt, metabolite-to-omeprazole AUCt ratio, median (minimum–maximum)” value [1, 15] was 0.76 (0.13–1.1). The “RAUCinf, metabolite-to-omeprazole AUCinf ratio, median (minimum–maximum)” value [1, 16] was 0.99 (0.71–1.5), the “RAUCt, metabolite-to-omeprazole AUCt ratio, median (minimum–maximum)” value [1, 16] was 0.97 (0.67–1.5) and the “increase in AUCinf (exposure)” value [1, 17] was 2.5 fold. The “increase in Cmax” value [1, 17] was 2.7 fold, the “change in Tmax” value [1] was “relatively unchanged” and the “change in terminal elimination half-life” value [1] was “relatively unchanged”. For the same compound, the increase in exposures ([1]; day 11 vs day 1, EM and IM subjects) was ~ 3 fold, the “increase in AUCinf” value ([1]; day 11 vs day 1, EM subjects) was 2.7 fold and the “increase in AUCinf” value ([1]; day 11 vs day 1, IM subjects) was 3 fold. For the same compound, the “increase in metabolite-to-parent (M:P) AUC ratio” value ([1]; day 11 vs day 1, all subjects) was 25% and the “AUCinf on day 11 lower compared to day 1” value ([1]; one PM subject with AUCinf on both days) was 40%.

For `COc1ccc2[nH]c([S+]([O-])Cc3ncc(C)c(OC)c3C)nc2c1` (stereo not shown) [omeprazole, reference compound], the “estimated fraction absorbed and escaping intestinal first pass (fa*fg)” value [9] is given as “approximately 0.80”, the “increase in AUCinf (exposure)” value [1, 17] is given as 1.8 fold and the “increase in Cmax” value [1, 17] is given as 1.9 fold. For the same compound, the “change in Tmax” value [1] was “unchanged”, the “change in terminal elimination half-life” value [1] was “unchanged” and the “increase in AUCinf” value ([1]; day 11 vs day 1, EM subjects) was 2 fold. For the same compound, the “increase in AUCinf” value ([1]; day 11 vs day 1, IM subjects) was 2.6 fold, the “decrease in AUCinf (exposure)” value ([1]; day 11 vs day 1, PM subjects) was 40% and the “increase in Cmax” value ([1]; day 11 vs day 1, PM subjects) was 23%. For the same compound, the Tmax ([1]; human, plasma, oral, 40 mg, Tmax, individual subjects, three PM subjects, day 1) was 8 h, the “Tmax, individual subjects” value ([1]; three PM subjects, day 1) was 10 h and 2 h and the “Tmax, individual subjects” value ([1]; three PM subjects, day 11) was 2 h (2×) and 1 h. The “model-estimated absorption rate constant, higher vs homozygous wild-type” value ([10]; subjects heterozygous for ABCB1 mutant alleles) was 2 fold, the “model-estimated absorption rate constant, higher vs homozygous wild-type” value ([10]; subjects homozygous for ABCB1 mutant alleles) was 7 fold and the “increase in AUC” value [11] was “more than 2 fold”. The “increase in Cmax” value [11] was “more than 2 fold” and the “Biopharmaceutics Classification System (BCS) class” value [12] was “Class 2”.
